This note sets out measurements from ChEMBL document CHEMBL3526078, “Pharmacokinetics and hepatic uptake of eltrombopag, a novel platelet-increasing agent” (Drug Metab Dispos, 2011).

The structures appear in SMILES notation.

By clearance is commonly meant the volume of plasma or blood freed of the substance per unit of time. By Ki is commonly meant a measure of affinity in units of concentration, obtained from inhibition or displacement.

The test system of one data set is Liver. Briefly: Drug uptake in mouse liver at 1 mg/kg, iv in presence of rifampicin OATP inhibitor. More on the design: dose 1 mg/kg, route intravenous. To be noted: in vivo. In kind it is ADME, organism-based.
A short description of data set [1]: Volume of distribution at steady state in Sprague-Dawley rat at 1 mg/kg, iv. The format is ADME, organism-based. Details: dose 1 mg/kg, route intravenous; call rule not given here. As to conditions: in vivo, read-out: Vdss.
In data set [2] the test system is Hepatocyte. Briefly: Drug uptake in mouse hepatocytes in absence of Na+. In kind it is ADME, cell-based.
In data set [3] the test system is Hepatocyte. In words: Drug uptake in mouse hepatocytes at 4 degC. In kind it is ADME, cell-based.
Data set [4] relates to Hepatocyte. Briefly: Drug uptake in mouse hepatocytes in presence of phenylalanine. In kind it is ADME, cell-based.
The test system of data set [5] is Hepatocyte. Briefly: Drug uptake in mouse hepatocytes in presence of GABA. The format is ADME, cell-based.
Data set [6] can be described thus: Total clearance in wild-type mouse at 1 mg/kg, iv. Details: dose 1 mg/kg, route intravenous. The format is ADME, organism-based. As to conditions: in vivo.
The subject of data set [7] is Hepatocyte. In words: Drug uptake in mouse hepatocytes at pH 6.5. In kind it is ADME, cell-based.
Data set [8] addresses T1, Solute carrier organic anion transporter family member 1B1 (Homo sapiens, UniProt Q9Y6L6).
T1 sequence (Q9Y6L6 whole entry): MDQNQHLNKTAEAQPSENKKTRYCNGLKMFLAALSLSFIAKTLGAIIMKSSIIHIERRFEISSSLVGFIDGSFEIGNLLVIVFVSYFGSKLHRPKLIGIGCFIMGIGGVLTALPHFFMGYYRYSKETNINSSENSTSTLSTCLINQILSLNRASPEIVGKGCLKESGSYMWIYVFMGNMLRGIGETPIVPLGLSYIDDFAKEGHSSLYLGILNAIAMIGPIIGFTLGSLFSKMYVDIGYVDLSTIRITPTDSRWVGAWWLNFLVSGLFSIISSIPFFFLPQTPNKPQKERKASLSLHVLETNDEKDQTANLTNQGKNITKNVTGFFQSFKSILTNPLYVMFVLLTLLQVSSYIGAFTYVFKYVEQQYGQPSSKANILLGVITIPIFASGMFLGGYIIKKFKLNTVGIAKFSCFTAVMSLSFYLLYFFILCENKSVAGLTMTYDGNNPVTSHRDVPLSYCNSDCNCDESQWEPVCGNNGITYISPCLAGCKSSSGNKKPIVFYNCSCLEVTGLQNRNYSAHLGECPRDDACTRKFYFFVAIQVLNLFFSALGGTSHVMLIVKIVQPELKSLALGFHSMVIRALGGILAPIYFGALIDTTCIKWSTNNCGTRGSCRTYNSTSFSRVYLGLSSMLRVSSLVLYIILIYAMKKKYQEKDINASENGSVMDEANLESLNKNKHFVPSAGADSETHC
In words: Inhibition of OATP1B1-mediated [3H]estrone-3-sulfate uptake in human OATP1B1 expressing HEK293/PDZK1 cells by scintillation counting. The format is ADME, cell-based.

Another data set relates to Kidney. In words: Drug uptake in mouse kidney at 1 mg/kg, iv in presence of 30 umol/kg TPeA. In kind it is ADME, organism-based. Details: dose 1 mg/kg, route intravenous. To be noted: in vivo.
Data set [9] deals with T2, Solute carrier organic anion transporter family member 1B3 (Homo sapiens, UniProt Q9NPD5).
T2 sequence (Q9NPD5 whole entry): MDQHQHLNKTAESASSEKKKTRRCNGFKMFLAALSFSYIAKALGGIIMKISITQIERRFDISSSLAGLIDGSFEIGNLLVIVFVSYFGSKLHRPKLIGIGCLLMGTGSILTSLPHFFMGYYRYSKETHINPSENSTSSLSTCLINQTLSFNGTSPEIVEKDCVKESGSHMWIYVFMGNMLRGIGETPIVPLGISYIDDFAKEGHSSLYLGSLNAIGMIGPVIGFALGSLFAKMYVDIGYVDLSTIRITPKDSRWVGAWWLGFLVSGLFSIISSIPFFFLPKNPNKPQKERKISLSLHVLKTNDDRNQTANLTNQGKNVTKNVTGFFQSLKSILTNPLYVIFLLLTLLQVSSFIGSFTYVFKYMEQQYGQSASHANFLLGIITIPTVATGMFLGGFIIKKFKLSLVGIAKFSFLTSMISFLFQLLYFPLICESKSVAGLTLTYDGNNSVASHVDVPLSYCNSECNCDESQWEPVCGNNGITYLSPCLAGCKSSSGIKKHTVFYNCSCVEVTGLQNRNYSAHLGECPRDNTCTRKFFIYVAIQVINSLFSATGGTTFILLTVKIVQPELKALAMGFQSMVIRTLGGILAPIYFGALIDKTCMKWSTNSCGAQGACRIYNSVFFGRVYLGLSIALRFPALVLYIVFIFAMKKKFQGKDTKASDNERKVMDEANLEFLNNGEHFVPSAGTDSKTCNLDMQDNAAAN
In words: Inhibition of OATP1B3-mediated [3H]estradiol 17beta-glucuronide uptake in human OATP1B3 expressing HEK293/PDZK1 cells by scintillation counting. In kind it is ADME, cell-based.

Data set [10] in a line: Total clearance in bile duct cannulated Sprague-Dawley rat at 1 mg/kg, iv. In kind it is ADME, organism-based. Details: dose 1 mg/kg, route intravenous. To be noted: in vivo.
Data set [11] has as its target T3, Solute carrier organic anion transporter family member 2B1 (Homo sapiens, UniProt O94956).
T3 sequence (O94956 whole entry): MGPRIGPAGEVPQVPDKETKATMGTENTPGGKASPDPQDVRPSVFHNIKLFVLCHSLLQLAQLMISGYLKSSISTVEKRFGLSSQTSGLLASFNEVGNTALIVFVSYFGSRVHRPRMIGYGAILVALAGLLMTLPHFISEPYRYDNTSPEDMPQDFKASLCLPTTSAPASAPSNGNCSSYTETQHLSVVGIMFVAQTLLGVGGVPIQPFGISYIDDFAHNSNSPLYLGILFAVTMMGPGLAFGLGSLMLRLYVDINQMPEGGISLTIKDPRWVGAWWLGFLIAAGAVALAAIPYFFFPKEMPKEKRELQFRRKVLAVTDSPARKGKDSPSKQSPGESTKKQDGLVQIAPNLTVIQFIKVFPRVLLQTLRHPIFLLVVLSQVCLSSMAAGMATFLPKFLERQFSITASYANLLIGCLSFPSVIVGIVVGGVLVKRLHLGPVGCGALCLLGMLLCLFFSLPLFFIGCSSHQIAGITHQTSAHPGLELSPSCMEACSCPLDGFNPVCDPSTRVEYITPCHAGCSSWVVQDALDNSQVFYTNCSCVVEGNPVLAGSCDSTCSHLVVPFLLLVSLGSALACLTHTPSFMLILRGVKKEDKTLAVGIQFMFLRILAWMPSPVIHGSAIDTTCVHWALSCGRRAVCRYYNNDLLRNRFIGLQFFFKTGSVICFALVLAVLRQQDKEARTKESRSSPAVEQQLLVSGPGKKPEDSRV
Briefly: Inhibition of OATP2B1-mediated [3H]estrone-3-sulfate uptake in human OATP2B1 expressing HEK293/PDZK1 cells by scintillation counting. The format is ADME, cell-based.

On to `CC1=NN(c2ccc(C)c(C)c2)C(=O)/C1=N\Nc1cccc(-c2cccc(C(=O)O)c2)c1O` [ELTROMBOPAG], for which the Drug uptake result is reported as “Not Active” in the data set on Liver; “Active” in the data set on Hepatocyte [2]; “Not Active” with Hepatocyte [3]; “Not Active” with Hepatocyte [4]; “Not Active” with Hepatocyte [5]; “Active” with Hepatocyte [7]. Further, the Drug uptake entry in the data set on Kidney is “Active”. Further, the Vd in data set [1] stood at 0.287 L/kg. The clearance in data set [6] is 1.29 mL/min/kg; in data set [10], 0.572 mL/min/kg. Besides, the Ki in [8] was 14.9 µM; in data set [9], 25.6 µM; in [11] it was 8.48 µM. Further, the “inhibition (INH)” value in data set [8] (human, hek293/pdzk1) is “Active”; in data set [9] (human, hek293/pdzk1), “Active”; in data set [11] (human, hek293/pdzk1), “Active”.
